In patent publication US20230399313A1, “BIOLOGICAL ACTIVITIES OF 5-(2-(4-(4-FLUORO-2-METHYL-1H-INDOL-5-YLOXY)-6-METHOXYQUINOLIN-7-YLOXY)ETHYL)-5-AZASPIRO[2.4]-HEPTAN-7-OL CRYSTALLINE, PHOSPHORIC ACID SALT AND ITS ENANTIOMERS” (Advenchen Pharmaceuticals, LLC, priority 2022, published 2023):
≈ marks a conversion by molar mass, not a printed value.

Key:
Water solubility = format: physicochemical
SKOV3 = assay: In vitro MTT (proliferation) assay; format: cell-based; details: Homo sapiens, SK-OV-3; SKOV3 cell line, ovary; MTT; read-out: SKOV3 IC50
Description: (§1) The inhibitions of Compound A-Xln, Compound A-P-Xln and two chiral isomers (Compound R-A, Compound S-A) to cancer cell lines are tested via in vitro MTT assay. Cancer cell lines are selected from PANC-1, NCI-H157, MDA-MB-231, Hela, PC-3, BEL7404, MKN45, Ishikawa, Saos-2, SKOV3, SW579 and HCT116 cell lines. The IC50 values are in the micromole scale.
(§2) In vitro MTT (proliferation) assay was performed with compound from above examples to give following inhibition results: […]

Ishikawa = assay: In vitro MTT (proliferation) assay; format: cell-based; details: Homo sapiens, Ishikawa cell line, endometrial
Description: as §1, §2

NCI-H157 = assay: In vitro MTT (proliferation) assay; format: cell-based; details: Homo sapiens, NCI-H157 cell line, lung
Description: as §1, §2

SW579 = assay: In vitro MTT (proliferation) assay; format: cell-based; details: SW579 cell line, thyroid
Description: as §1, §2

PC-3 = assay: In vitro MTT (proliferation) assay; format: cell-based; details: Homo sapiens, PC-3 cell line, prostate
Description: as §1, §2

BEL7404 = assay: In vitro MTT (proliferation) assay; format: cell-based; details: Homo sapiens, BEL-7404, BEL7404 cell line, ovary (so in the source)
Description: as §1, §2

MKN45 = assay: In vitro MTT (proliferation) assay; format: cell-based; details: Homo sapiens, MKN-45, MKN45 cell line, breast (so in the source)
Description: as §1, §2

Saos-2 = assay: In vitro MTT (proliferation) assay; format: cell-based; details: Homo sapiens, Saos-2 cell line, sarcoma
Description: as §1, §2

PANC-1 = assay: In vitro MTT (proliferation) assay; format: cell-based; details: Homo sapiens, PANC-1 cell line, pancreas
Description: as §1, §2

HCT-116 = assay: In vitro MTT (proliferation) assay; format: cell-based; details: Homo sapiens, HCT116 cell line, colon, MTT, read-out: HCT116 IC50
Description: as §1, §2

MDA-MB-231 = assay: In vitro MTT (proliferation) assay; format: cell-based; details: Homo sapiens; MDA-MB-231 cell line, breast; MTT; read-out: MDA-MB-231 IC50
Description: as §1, §2

Hela = assay: In vitro MTT (proliferation) assay; format: cell-based; details: Homo sapiens; Hela cell line, ovary (so in the source); MTT; read-out: Hela IC50
Description: as §1, §2

[1] = Stability of amorphous and crystalline form API at 60° C. (HPLC related substances); format: physicochemical
Description: The samples of amorphous and crystalline form API of Compound A were placed in clean containers and the environmental temperature was controlled at 60° C. The purity of amorphous (Compound A-Amp) and crystalline form (Compound A-Xln) of Compound A were tested at Day 0, Day 10 and Day 30. Samples of amorphous and crystalline form APIs were measured, and the appropriate amount of diluent was added to dissolve with sonication. The concentration was controlled at 0.2 mg/ml and the purification was determined by HPLC with UV detector at 230 nm. Results were listed in the table as follows and the fitted curve is in Drawing Sections as FIG. 6.

[2] = high temperature 60° C., 10 days
[3] = high temperature 60° C., 30 days

Row | Structure (SMILES) | solubility (Water solubility) | IC50 (SKOV3) | IC50 (Ishikawa) | IC50 (NCI-H157) | IC50 (SW579) | IC50 (PC-3) | IC50 (BEL7404) | IC50 (MKN45) | IC50 (Saos-2) | IC50 (PANC-1) | IC50 (HCT-116) | IC50 (MDA-MB-231) | IC50 (Hela) | Maximum impurities (%) ([1]; 0 day) | Total impurities (%) ([1]; 0 day) | Maximum impurities (%) [1, 2] | Total impurities (%) [1, 2] | Maximum impurities (%) [1, 3] | Total impurities (%) [1, 3]
1 | COc1cc2c(Oc3ccc4[nH]c(C)cc4c3F)ccnc2cc1OCCN1CC(O)C2(CC2)C1 (stereo not shown) [Compound A-P, 5-(2-(4-(4-fluoro-2-methyl-1H-indol-5-yloxy)-6-methoxyquinolin-7-yloxy)ethyl)-5-azaspiro[2.4]-heptan-7-ol] | 360 µg/mL (≈ 754 µM) | – | – | – | – | – | – | – | – | – | – | – | – | – | – | – | – | – | –
2 | COc1cc2c(Oc3ccc4[nH]c(C)cc4c3F)ccnc2cc1OCCN1C[C@H](O)C2(CC2)C1 [Compound R-A] | – | 3710 nM | 4610 nM | 8110 nM | 906 nM | 2750 nM | 4060 nM | 430 nM | 3080 nM | 5640 nM | 883 nM | 9600 nM | 6690 nM | – | – | – | – | – | –
3 | COc1cc2c(Oc3ccc4[nH]c(C)cc4c3F)ccnc2cc1OCCN1C[C@@H](O)C2(CC2)C1 [Compound S-A] | – | 7650 nM | 4980 nM | 7000 nM | 836 nM | 5600 nM | 2380 nM | 320 nM | 5350 nM | 5000 nM | 980 nM | 6600 nM | 6300 nM | – | – | – | – | – | –
4 | COc1cc2c(Oc3ccc4[nH]c(C)cc4c3F)ccnc2cc1OCCN1CC(O)C2(CC2)C1 (stereo not shown) [Compound A-P-Xln, 5-(2-(4-(4-fluoro-2-methyl-1H-indol-5-yloxy)-6-methoxyquinolin-7-yloxy)ethyl)-5-azaspiro[2.4]-heptan-7-ol] | – | 3090 nM | 1480 nM | 1610 nM | 880 nM | 1770 nM | 1750 nM | 130 nM | 2480 nM | 2750 nM | 934 nM | 3930 nM | 2360 nM | – | – | – | – | – | –
5 | COc1cc2c(Oc3ccc4[nH]c(C)cc4c3F)ccnc2cc1OCCN1CC(O)C2(CC2)C1 (stereo not shown) [Compound A-Amp, 5-(2-(4-(4-fluoro-2-methyl-1H-indol-5-yloxy)-6-methoxyquinolin-7-yloxy)ethyl)-5-azaspiro[2.4]-heptan-7-ol] | – | – | – | – | – | – | – | – | – | – | – | – | – | 0.075% | 0.26% | 0.191% | 0.323% | 0.327% | 0.583%
